Measurements from PubChem BioAssay AID248 (DTP/NCI, 2004).
“And” between values parts separate entries of the source, which are not always exact repeats. Equal entries are not always repeated. Inconclusive results and toxic doses are left out.

Test system: L1210 leukemia ip in BDF1 mice, survival T/C
Assay: NCI In Vivo Anticancer Drug Screen. Data for tumor model L1210 Leukemia (intraperitoneal) in B6D2F1 (BDF1) mice
Conditions: endpoint: mean survival time, higher = longer survival
Procedure, shortened: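 Each compound was tested against a transplantable tumor grown in mice. The endpoint was survival, with treated animals benchmarked against vehicle controls as a simple ratio.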

[1] = dose: 50.0 mg/kg/injection, schedule: Q01DX009 (ip), vehicle: saline with Tween-80
[2] = dose: 100.0 mg/kg/injection, schedule: Q01DX009 (ip), vehicle: saline with Tween-80
[3] = dose: 200.0 mg/kg/injection, schedule: Q01DX009 (ip), vehicle: saline with Tween-80
[4] = dose: 100.0 mg/kg/injection, schedule: Q01DX009 (ip), vehicle: saline
[5] = dose: 200.0 mg/kg/injection, schedule: Q01DX009 (ip), vehicle: saline
[6] = dose: 400.0 mg/kg/injection, schedule: Q01DX009 (ip), vehicle: saline
[7] = dose: 100.0 mg/kg/injection, schedule: Q04DX003 (ip), vehicle: saline
[8] = dose: 200.0 mg/kg/injection, schedule: Q04DX003 (ip), vehicle: saline
[9] = dose: 400.0 mg/kg/injection, schedule: Q04DX003 (ip), vehicle: saline
[10] = dose: 100.0 mg/kg/injection, schedule: Q04DX003 (ip), vehicle: saline with Tween-80
[11] = dose: 100.0 mg/kg/injection, schedule: Q01DX009 (ip), vehicle: Klucel (hydroxypropylcellulose) (HPC)

Structure (SMILES): CCCCCC/C=N/Nc1ccc([N+](=O)[O-])cc1[N+](=O)[O-]
- T/C [1]: 101 % of control
- T/C [2]: 102 % of control
- T/C [3]: 91 % of control

Structure (SMILES): CCOC(=O)/C(Br)=C/SCCN
- T/C [4]: 97 % of control
- T/C [5]: 92 % of control
- T/C [6]: 91 % of control

Structure (SMILES): N#Cc1cccn1-c1cccc2c(-n3cccc3C#N)cccc12
- T/C (dose: 25.0 mg/kg/injection, schedule: Q04DX002 (ip), vehicle: Klucel (hydroxypropylcellulose) (HPC)): 101 % of control
- T/C (dose: 50.0 mg/kg/injection, schedule: Q04DX002 (ip), vehicle: Klucel (hydroxypropylcellulose) (HPC)): 97 % of control
- T/C (dose: 100.0 mg/kg/injection, schedule: Q04DX002 (ip), vehicle: Klucel (hydroxypropylcellulose) (HPC)): 101 % of control

Structure (SMILES): NC(=O)c1ncn(C2OC(CO)C(O)C2O)c1N (stereo not given)
- T/C (dose: 50.0 mg/kg/injection, schedule: Q01DX001 (ip), vehicle: saline): 111 % of control
- T/C (dose: 100.0 mg/kg/injection, schedule: Q01DX001 (ip), vehicle: saline): 111 % of control
- T/C (dose: 200.0 mg/kg/injection, schedule: Q01DX001 (ip), vehicle: saline): 114 % of control

Structure (SMILES): O=P(N1CCOCC1)(N1CCOCC1)N1CCOCC1
- T/C [7]: 100 % of control and 112 % of control
- T/C [8]: 98 % of control and 106 % of control
- T/C [9]: 97 % of control and 109 % of control

Structure (SMILES): S=C(S)NNc1ccccc1
- T/C (dose: 25.0 mg/kg/injection, schedule: Q04DX003 (ip), vehicle: saline with Tween-80): 104 % of control
- T/C [1]: 86 % of control
- T/C (dose: 50.0 mg/kg/injection, schedule: Q04DX003 (ip), vehicle: saline with Tween-80): 109 % of control
- T/C [2]: 86 % of control
- T/C [10]: 109 % of control

Structure (SMILES): CN(C)/N=N\c1nc[nH]c1C(=O)N1CCCC1
- T/C (dose: 100.0 mg/kg/injection, schedule: Q01DX001 (ip), vehicle: saline with Tween-80): 100 % of control
- T/C (dose: 200.0 mg/kg/injection, schedule: Q01DX001 (ip), vehicle: saline with Tween-80): 105 % of control
- T/C [3]: 150 % of control and 206 % of control
- T/C (dose: 400.0 mg/kg/injection, schedule: Q01DX001 (ip), vehicle: saline with Tween-80): 111 % of control

Structure (SMILES): CCN(CC)CCNc1nc(N)nc2c1nnn2CC
- T/C (dose: 100.0 mg/kg/injection, schedule: Q04DX003 (ip), vehicle: gum acacia): 93 % of control
- T/C (dose: 200.0 mg/kg/injection, schedule: Q04DX003 (ip), vehicle: gum acacia): 91 % of control

Structure (SMILES): CC1=CC(C)(C2(O)c3ccccc3-c3ccccc32)C=C(C)C1
- T/C [10]: 98 % of control
- T/C (dose: 200.0 mg/kg/injection, schedule: Q04DX003 (ip), vehicle: saline with Tween-80): 95 % of control
- T/C (dose: 400.0 mg/kg/injection, schedule: Q04DX003 (ip), vehicle: saline with Tween-80): 95 % of control

Structure (SMILES): CC1(C)C2C=CC1C(CO)(CO)C2 (stereo not given)
- T/C [4]: 105 % of control
- T/C [7]: 103 % of control
- T/C [5]: 97 % of control
- T/C [8]: 92 % of control
- T/C [6]: 100 % of control
- T/C [9]: 109 % of control

Structure (SMILES): CCCCCCCCCCP(=O)(CCCC)CCCC
- T/C (dose: 1.56 mg/kg/injection, schedule: Q01DX009 (ip), vehicle: Klucel (hydroxypropylcellulose) (HPC)): 92 % of control
- T/C (dose: 3.12 mg/kg/injection, schedule: Q01DX009 (ip), vehicle: Klucel (hydroxypropylcellulose) (HPC)): 95 % of control
- T/C (dose: 6.25 mg/kg/injection, schedule: Q01DX009 (ip), vehicle: Klucel (hydroxypropylcellulose) (HPC)): 97 % of control
- T/C (dose: 12.5 mg/kg/injection, schedule: Q01DX009 (ip), vehicle: Klucel (hydroxypropylcellulose) (HPC)): 95 % of control
- T/C [11]: 100 % of control

Structure (SMILES): O=C(CCC1CCCC1)c1ccccc1
- T/C (dose: 12.5 mg/kg/injection, schedule: Q04DX002 (ip), vehicle: saline): 100 % of control
- T/C (dose: 25.0 mg/kg/injection, schedule: Q04DX002 (ip), vehicle: saline): 98 % of control
- T/C (dose: 50.0 mg/kg/injection, schedule: Q04DX002 (ip), vehicle: saline): 98 % of control
- T/C (dose: 100.0 mg/kg/injection, schedule: Q04DX002 (ip), vehicle: saline): 98 % of control
- T/C (dose: 200.0 mg/kg/injection, schedule: Q04DX002 (ip), vehicle: saline): 98 % of control
- T/C (dose: 400.0 mg/kg/injection, schedule: Q04DX002 (ip), vehicle: saline): 91 % of control

Structure (SMILES): Cc1cccc(N=Nc2c(C)nc(N)nc2C)c1C
- T/C (dose: 100.0 mg/kg/injection, schedule: Q04DX003 (ip), vehicle: other): 94 % of control
- T/C (dose: 200.0 mg/kg/injection, schedule: Q04DX003 (ip), vehicle: other): 96 % of control
- T/C (dose: 400.0 mg/kg/injection, schedule: Q04DX003 (ip), vehicle: other): 93 % of control

Structure (SMILES): COc1ccc(Cl)cc1NC(=O)N1CCN(c2ccccc2)CC1
- T/C [11]: 120 % of control
- T/C [7]: 101 % of control
- T/C (dose: 200.0 mg/kg/injection, schedule: Q01DX009 (ip), vehicle: Klucel (hydroxypropylcellulose) (HPC)): 97 % of control
- T/C [8]: 101 % of control
- T/C (dose: 400.0 mg/kg/injection, schedule: Q01DX009 (ip), vehicle: Klucel (hydroxypropylcellulose) (HPC)): 111 % of control
- T/C [9]: 97 % of control
